Active and inactive are the calls of the source. No cut-off for these calls is given here.
Experiments:
[1] = Drug level in ICR mouse brain at 10 mg/kg, po measured after 1 hr by LC/MS/MS analysis; type: ADME, organism-based; conditions: read-out: Ct
[2] = target: Glycogen synthase kinase-3 beta (Mus musculus) (UniProt Q9WV60); assay: Inhibition of GSK3beta in mouse N2a cells overexpressing human tau assessed as decrease in tau phosphorylation at Ser396 residue at 0.9 uM measured after 6 hrs by Western blot assay; type: cell-based
Glycogen synthase kinase-3 beta (Mus musculus), sequence (Q9WV60 whole entry, looked up): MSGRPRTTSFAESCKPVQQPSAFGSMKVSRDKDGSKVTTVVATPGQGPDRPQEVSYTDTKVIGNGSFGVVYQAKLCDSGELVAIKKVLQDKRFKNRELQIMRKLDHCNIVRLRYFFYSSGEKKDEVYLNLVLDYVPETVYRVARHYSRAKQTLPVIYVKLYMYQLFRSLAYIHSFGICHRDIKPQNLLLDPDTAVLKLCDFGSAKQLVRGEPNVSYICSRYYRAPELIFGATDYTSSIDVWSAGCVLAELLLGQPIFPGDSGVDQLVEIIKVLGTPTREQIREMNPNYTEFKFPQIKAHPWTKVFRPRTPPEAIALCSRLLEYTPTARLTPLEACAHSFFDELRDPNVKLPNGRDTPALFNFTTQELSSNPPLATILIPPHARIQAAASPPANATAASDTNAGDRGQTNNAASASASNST

[3] = Tmax in Sprague-Dawley rat at 10 mg/kg, po measured up to 24 hrs by LC-MS/MS analysis; type: ADME, organism-based; conditions: in vivo
[4] = MRT (0 to infinity) in Sprague-Dawley rat at 10 mg/kg, po measured up to 24 hrs by LC-MS/MS analysis; type: ADME, organism-based; conditions: in vivo
[5] = system: Mus musculus; assay: Cognitive enhancing effect in mouse model of scopolamine-induced amnesia assessed as escape latency time at 10 mg/kg/day, po measured by Morris water maze test (reference value: 17.9 sec); type: functional
[6] = Half life in Sprague-Dawley rat at 10 mg/kg, po measured up to 24 hrs by LC-MS/MS analysis; type: ADME, organism-based; conditions: in vivo
[7] = target: Cholinesterase (Homo sapiens, UniProt P06276); assay: Inhibition of BChE (unknown origin)
Cholinesterase, sequence (P06276 whole entry): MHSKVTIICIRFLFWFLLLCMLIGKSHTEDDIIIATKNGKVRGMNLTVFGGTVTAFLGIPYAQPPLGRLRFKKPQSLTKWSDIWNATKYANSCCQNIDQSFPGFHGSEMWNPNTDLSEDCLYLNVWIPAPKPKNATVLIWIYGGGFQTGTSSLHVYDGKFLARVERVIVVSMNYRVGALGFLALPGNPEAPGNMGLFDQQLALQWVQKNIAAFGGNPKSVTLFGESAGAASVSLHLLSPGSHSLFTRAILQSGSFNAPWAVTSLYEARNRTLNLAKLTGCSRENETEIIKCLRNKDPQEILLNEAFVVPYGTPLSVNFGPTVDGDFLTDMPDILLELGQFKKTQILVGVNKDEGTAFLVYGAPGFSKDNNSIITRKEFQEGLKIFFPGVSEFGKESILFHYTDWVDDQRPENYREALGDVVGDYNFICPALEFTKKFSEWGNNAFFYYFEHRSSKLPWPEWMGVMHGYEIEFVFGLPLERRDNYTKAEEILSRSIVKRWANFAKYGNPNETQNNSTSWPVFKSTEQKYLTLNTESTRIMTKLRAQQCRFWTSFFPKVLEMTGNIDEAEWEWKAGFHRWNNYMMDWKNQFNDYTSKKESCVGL

[8] = target: Mitogen-activated protein kinase 9 (Homo sapiens) (UniProt P45984); assay: Inhibition of JNK2 (unknown origin) at 0.3 uM
Mitogen-activated protein kinase 9 (Homo sapiens), sequence (P45984 whole entry, looked up): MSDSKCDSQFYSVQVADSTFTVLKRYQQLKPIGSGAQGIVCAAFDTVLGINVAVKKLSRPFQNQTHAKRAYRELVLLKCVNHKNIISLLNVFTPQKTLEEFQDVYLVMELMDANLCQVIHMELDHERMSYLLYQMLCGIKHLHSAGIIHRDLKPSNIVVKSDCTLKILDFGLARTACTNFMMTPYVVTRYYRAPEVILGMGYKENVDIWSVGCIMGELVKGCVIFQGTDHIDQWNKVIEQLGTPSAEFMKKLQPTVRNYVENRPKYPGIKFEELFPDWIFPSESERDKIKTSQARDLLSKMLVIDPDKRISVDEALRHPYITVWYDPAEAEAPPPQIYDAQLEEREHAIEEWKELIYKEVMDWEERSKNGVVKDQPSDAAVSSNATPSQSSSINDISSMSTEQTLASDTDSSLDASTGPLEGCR

[9] = Cmax in Sprague-Dawley rat at 10 mg/kg, po measured up to 24 hrs by LC-MS/MS analysis; type: ADME, organism-based; set-up: route oral, dose 10 mg/kg, time <=24; conditions: in vivo
[10] = target: Cyclin-dependent kinase 1 (Homo sapiens) (UniProt P06493); assay: Inhibition of CDK1 (unknown origin) at 0.3 uM
[11] = Drug level in ICR mouse brain at 10 mg/kg, po measured after 1.5 hrs by LC/MS/MS analysis; type: ADME, organism-based; conditions: read-out: Ct
[12] = target: Cyclin-dependent kinase 7 (Homo sapiens) (UniProt P50613); assay: Inhibition of CDK7 (unknown origin) at 0.3 uM
Cyclin-dependent kinase 7 (Homo sapiens), sequence (P50613 whole entry): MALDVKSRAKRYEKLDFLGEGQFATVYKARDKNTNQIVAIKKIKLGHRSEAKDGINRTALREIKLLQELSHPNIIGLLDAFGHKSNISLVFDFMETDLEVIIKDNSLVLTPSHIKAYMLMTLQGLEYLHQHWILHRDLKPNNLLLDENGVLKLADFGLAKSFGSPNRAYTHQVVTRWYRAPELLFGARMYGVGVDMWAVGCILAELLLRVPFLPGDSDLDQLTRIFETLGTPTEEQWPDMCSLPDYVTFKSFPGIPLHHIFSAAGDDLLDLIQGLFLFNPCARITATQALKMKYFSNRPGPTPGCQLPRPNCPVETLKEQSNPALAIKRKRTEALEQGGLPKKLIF

[13] = target: Glycogen synthase kinase-3 beta (Mus musculus) (UniProt Q9WV60); assay: Inhibition of GSK3beta in glutamate-induced mouse HT-22 cells assessed as increase in synaptophysin level at 0.6 uM pretreated with glutamate for 24 hrs followed by compound treatment by immunocytochemistry assay; type: cell-based
[14] = MRT (0 to infinity) in Sprague-Dawley rat at 1 mg/kg, iv measured up to 24 hrs by LC-MS/MS analysis; type: ADME, organism-based; conditions: in vivo
[15] = Toxicity in amyloid beta (1 to 42)-induced mouse model of Alzheimer's disease assessed as changes in body weight at 10 mg/kg/day, po measured after 9 days; type: organism-based; conditions: in vivo, 216 h, time 9 day
[16] = system: Mus musculus; assay: Improvement in learning and spatial memory in amyloid beta (1 to 42)-induced mouse model of Alzheimer's disease assessed as increase in spontaneous alteration at 10 mg/kg/day, po pretreated with amyloid beta42 for 3 days followed by treatment with compound and measured after 9 days measured by Y-maze test; type: functional, organism-based; conditions: time 9.0 day
[17] = target: Cyclin-dependent kinase 6 (Homo sapiens) (UniProt Q00534); assay: Inhibition of CDK6 (unknown origin) at 0.3 uM
Cyclin-dependent kinase 6 (Homo sapiens), sequence (Q00534 whole entry): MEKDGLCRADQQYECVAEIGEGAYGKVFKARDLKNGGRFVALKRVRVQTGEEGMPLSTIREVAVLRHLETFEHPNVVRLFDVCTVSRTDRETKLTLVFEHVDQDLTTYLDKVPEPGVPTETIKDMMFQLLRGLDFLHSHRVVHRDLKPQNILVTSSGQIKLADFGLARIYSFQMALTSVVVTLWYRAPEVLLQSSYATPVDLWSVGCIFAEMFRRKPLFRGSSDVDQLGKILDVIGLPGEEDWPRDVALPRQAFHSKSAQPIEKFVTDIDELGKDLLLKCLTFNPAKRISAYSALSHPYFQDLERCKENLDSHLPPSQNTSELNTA

[18] = target: Cholinesterases; ACHE & BCHE (Homo sapiens) (UniProt P06276+P22303); assay: Selectivity index, ratio of IC50 for BChE (unknown origin) to IC50 for human recombinant AChE; type: protein assay
Cholinesterases; ACHE & BCHE (Homo sapiens), sequence (P06276 whole entry, looked up): as the sequence (P06276 whole entry) above
Cholinesterases; ACHE & BCHE (Homo sapiens), sequence (P22303 whole entry, looked up): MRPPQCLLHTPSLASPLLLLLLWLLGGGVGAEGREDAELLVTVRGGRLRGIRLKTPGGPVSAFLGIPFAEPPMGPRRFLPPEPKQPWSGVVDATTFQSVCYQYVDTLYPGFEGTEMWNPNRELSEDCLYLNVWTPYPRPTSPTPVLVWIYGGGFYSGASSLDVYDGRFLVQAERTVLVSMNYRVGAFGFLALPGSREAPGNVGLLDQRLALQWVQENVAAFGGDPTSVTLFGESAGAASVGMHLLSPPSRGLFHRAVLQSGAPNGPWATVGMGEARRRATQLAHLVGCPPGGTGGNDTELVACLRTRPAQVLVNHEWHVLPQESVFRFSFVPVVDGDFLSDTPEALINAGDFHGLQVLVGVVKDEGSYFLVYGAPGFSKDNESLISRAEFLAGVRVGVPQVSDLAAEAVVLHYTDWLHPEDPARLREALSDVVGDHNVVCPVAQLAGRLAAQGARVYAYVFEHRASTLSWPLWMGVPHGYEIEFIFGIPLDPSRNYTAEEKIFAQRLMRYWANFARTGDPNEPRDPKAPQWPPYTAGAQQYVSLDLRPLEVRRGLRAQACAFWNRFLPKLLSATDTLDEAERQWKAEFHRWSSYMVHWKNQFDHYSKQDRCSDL

[19] = target: Cyclin-dependent kinase 2 (Homo sapiens) (UniProt P24941); assay: Inhibition of CDK2 (unknown origin) at 0.3 uM
[20] = target: Acetylcholinesterase (Electrophorus electricus, UniProt O42275); assay: Inhibition of electric eel recombinant AChE preincubated for 1 min in presence of DNTB followed by addition of acetylthiocholine iodide substrate and measured after 20 mins by Ellman's method
[21] = Drug level in ICR mouse plasma at 10 mg/kg, po measured after 1 hr by LC/MS/MS analysis; type: ADME, organism-based
[22] = Half life in Sprague-Dawley rat at 1 mg/kg, iv measured up to 24 hrs by LC-MS/MS analysis; type: ADME, organism-based; conditions: in vivo
[23] = target: Acetylcholinesterase (Homo sapiens, UniProt P22303); assay: Inhibition of human recombinant AChE preincubated for 1 min in presence of DNTB followed by addition of acetylthiocholine iodide substrate and measured after 20 mins by Ellman's method
Acetylcholinesterase (Homo sapiens, UniProt P22303), sequence (P22303 whole entry): as the sequence (P22303 whole entry, looked up) above

[24] = target: Glycogen synthase kinase-3 beta (Homo sapiens, UniProt P49841); assay: Inhibition of human recombinant N-terminal His-tagged GSK3beta expressed in Escherichia coli using RRRPASVPPSPSLS RHS(pS)HQRR as substrate incubated for 30 mins in presence of ATP by Kinase-Glo reagent based luminescence assay
Glycogen synthase kinase-3 beta, sequence (P49841 whole entry): as the sequence (Q9WV60 whole entry, looked up) above, with P390T, A392T, T400A, A402T counted along it

[25] = Drug level in ICR mouse plasma at 10 mg/kg, po measured after 1.5 hrs by LC/MS/MS analysis; type: ADME, organism-based
[26] = target: Mitogen-activated protein kinase 1 (Homo sapiens) (UniProt P28482); assay: Inhibition of ERK2 (unknown origin) at 0.3 uM
[27] = target: Mitogen-activated protein kinase 11 (Homo sapiens) (UniProt Q15759); assay: Inhibition of p38beta (unknown origin) at 0.3 uM
[28] = target: T1, Acetylcholinesterase (Mus musculus) (UniProt P21836); conditions: ICR, dose 10.0 mg/kg, time 1.5 hrs
T1 sequence (whole entry): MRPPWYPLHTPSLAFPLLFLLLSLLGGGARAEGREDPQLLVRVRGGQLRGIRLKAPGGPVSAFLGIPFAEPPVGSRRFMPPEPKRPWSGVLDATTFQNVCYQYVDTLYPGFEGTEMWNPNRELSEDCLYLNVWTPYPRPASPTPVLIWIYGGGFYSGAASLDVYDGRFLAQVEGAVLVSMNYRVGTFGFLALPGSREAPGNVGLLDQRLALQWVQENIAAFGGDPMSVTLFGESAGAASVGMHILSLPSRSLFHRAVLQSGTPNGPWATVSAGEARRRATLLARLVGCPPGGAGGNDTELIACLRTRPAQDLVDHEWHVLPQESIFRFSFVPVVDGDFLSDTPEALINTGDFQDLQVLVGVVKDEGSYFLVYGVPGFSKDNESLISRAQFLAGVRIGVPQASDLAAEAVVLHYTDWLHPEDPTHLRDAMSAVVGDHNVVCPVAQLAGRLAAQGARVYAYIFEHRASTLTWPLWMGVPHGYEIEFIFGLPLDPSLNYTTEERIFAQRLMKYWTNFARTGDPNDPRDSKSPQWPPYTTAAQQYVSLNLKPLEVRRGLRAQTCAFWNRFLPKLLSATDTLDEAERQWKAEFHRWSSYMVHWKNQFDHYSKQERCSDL

[29] = Ratio of drug level in brain to plasma of ICR mouse at 10 mg/kg, po measured after 1.5 hrs by LC/MS/MS analysis; type: ADME, organism-based; conditions: brain and plasma
[30] = target: Mitogen-activated protein kinase 3 (Homo sapiens) (UniProt P27361); assay: Inhibition of ERK1 (unknown origin) at 0.3 uM
Mitogen-activated protein kinase 3 (Homo sapiens), sequence (P27361 whole entry): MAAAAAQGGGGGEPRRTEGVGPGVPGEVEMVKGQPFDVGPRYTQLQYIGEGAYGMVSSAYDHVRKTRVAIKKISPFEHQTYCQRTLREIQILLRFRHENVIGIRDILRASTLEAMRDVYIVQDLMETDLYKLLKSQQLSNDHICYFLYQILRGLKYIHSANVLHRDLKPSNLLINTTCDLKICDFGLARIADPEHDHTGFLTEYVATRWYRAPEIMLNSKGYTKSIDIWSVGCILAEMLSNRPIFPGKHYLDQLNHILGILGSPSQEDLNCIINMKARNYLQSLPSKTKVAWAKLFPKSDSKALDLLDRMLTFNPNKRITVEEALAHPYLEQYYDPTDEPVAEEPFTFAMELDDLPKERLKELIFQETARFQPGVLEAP

[31] = Effective permeability of the compound by PAMPA-BBB assay; type: ADME; conditions: read-out: Peff
[32] = Oral bioavailability in Sprague-Dawley rat at 10 mg/kg measured up to 24 hrs by LC-MS/MS analysis; type: ADME, organism-based; conditions: in vivo

O=C(Nc1cncc(OCC2CCN(Cc3ccc(F)cc3)CC2)c1)c1ccnc(NC(=O)C2CC2)c1
concentration at 1 h [1]: 62 ng/g | inhibition [2]: inactive | Tmax [3]: 1.9 h | MRT inf [4]: 10.9 h | Time [5]: 18.1 s | half-life [6]: 456 min | IC50 [7]: 5.3 µM | inhibition [8]: inactive | Cmax [9]: 159 ng/mL | inhibition [10]: inactive | concentration at 1.5 h [11]: 113 ng/g | inhibition [12]: inactive | inhibition [13]: Active | MRT inf [14]: 5.1 h | Activity [15]: Non-Toxic | Activity [16]: Active | inhibition [17]: inactive | Selectivity Index [18]: 5300 | inhibition [19]: inactive | IC50 [20]: 11.8 nM | concentration at 1 h [21]: 405 ng/g | half-life [22]: 312 min | IC50 [23]: 1 nM | IC50 [24]: 31 nM | concentration at 1.5 h [25]: 343 ng/g | inhibition [26]: inactive | inhibition [27]: inactive | inhibition [28]: 85.5% | Kp at 1.5 h [29]: 0.33 | inhibition [30]: inactive | Papp [31]: 10.5 ×10⁻⁶ cm/s | bioavailability [32]: 31%
